Experimental data from patent US20240300945A1, “CLY SERIES COMPOUND, PREPARATION METHOD THEREFOR AND USE THEREOF IN PREPARATION OF DRUGS” (NANJING WELLBEST PHARMACEUTICAL CO., LTD, priority 2021, published 2024).

Tested on: acute GVHD mice
Experiment: Mouse model of acute graft-versus-host disease
Type: in vivo, BALB/c mice
Conditions: 5 mg/kg/d intravenously; for pathological changes of liver: 2 weeks after transplantation, hematoxylin-eosin; for clinical symptom score (GVHD): 11th day after transplantation, acute GVHD group 7.48±0.77; for survival rate of mice: Kaplan-Meier, three weeks after transplantation, acute GVHD group 12.13%
Protocol: Preparation of bone marrow cells: the donor mice were sacrificed by cervical dislocation, soaked in 75% ethanol for 5 minutes, and the two femurs and tibia of the mice were taken out under sterile conditions in the ultra-clean table, and placed in RPMI1640 medium containing 2% fetal bovine serum. Rinsed the bone marrow cavity with RPMI1640 culture medium, took out the bone marrow cells, blew them into the bone marrow suspension with sterile washing tube, filtered them with a 200 mesh filter, centrifuged for 10 min at 1500 r/min, collected the cell precipitates, and added physiological saline for resuspension. In addition, took a small amount of cell suspension and counted the number of nucleated cells after removing the red blood cells from the red blood cell lysate. And adjusted the concentration of nucleated cells in bone marrow suspension to 5×1010 L-1.
Preparation of spleen mononuclear cells: cut the spleen envelope aseptically, put it on a 200-mesh filter screen, soaked it in RPMI1640 medium containing 2% fetal bovine serum by volume, gently grinded the spleen with the handle of a sterile syringe, washed the filter screen several times with the culture medium, collected the filtered spleen cell suspension, centrifuged it at 1500 r/min for 10 min, and collected the spleen cell precipitation. After PBS resuspension, it was blown into a single cell suspension, gently placed on the upper layer of mouse spleen lymphocyte separation solution, centrifuged at 1800 r/min for 20 min, and white membrane cells were collected. PBS was washed twice. After cell count, the cell density was adjusted to 5×1010 L-1, and put in a 4° C. refrigerator for use.
C57BL/6 mice were used as bone marrow transplantation donors and BABL/c mice as recipients. BABL/c mice were randomly divided into the control group, model group, and CLY treatment group (each group was injected with 5 mg/kg/d compound CLY-1, CLY-2, or CLY-8 intravenously) according to the number of body weight, with 6 mice in each group. One week before transplantation, BALB/c mice were fed sterile acidified water containing 200 mg/L gentamicin, and mice were given 8.5 Gy whole-body irradiation (cesium source) within 24 hours before transplantation. Model group and CLY-1 group, CLY-2 group, and CLY-8 group were injected with C57BL/6 mouse bone marrow nucleated cells (including cell 1×107) and spleen mononuclear cells (including cell 5×106) 0.5 mL of mixed solution was used to establish acute GVHD model in mice, and 0.5 mL of normal saline was infused into the tail vein of BABL/c mice in the control group. CLY-1 group, CLY-2 group, and CLY-8 group were injected with CLY compound solution of 5 mg/kg/d intravenously, and the other groups were injected with saline of 5 mg/kg/d.
1.3.1 GVHD symptom score of mice: observed the general conditions of mice every day after transplantation, including body mass, fur, posture, activity, diarrhea, and mental state, and determined whether the mice had acute GVHD. According to the clinical GVHD symptom scoring standard, the clinical GVHD symptoms of mice in each group were scored 11 days after transplantation.
1.3.2 Analysis of mouse survival time: collected the survival data of mice in each group three weeks after transplantation, drew the survival curve by the Kaplan-Meier method, and compared the differences between the survival rates of mice in each group by Log-rank analysis method.
1.3.3 Histopathological examination: two weeks after transplantation, three mice with GVHD were taken from each group, and the back skin tissue, liver, and small intestine tissue were taken. 40 g/L paraformaldehyde was fixed, paraffin was fixed and embedded, hematoxylin-eosin staining was performed, and the pathological changes of each tissue were observed under the light microscope.

| Structure (SMILES) | pathological changes of liver | clinical symptom score (GVHD) | survival rate of mice [%] |
| --- | --- | --- | --- |
| CN1CCC[C@@H](N(C(=O)c2ccc(-n3nnc4cccnc43)cc2)c2ncccc2Cl)C1 [CLY-1, (R)-4-(3H-[1,2,3]triazolo[4,5-b]pyridin-3-yl)-N-(3-chloropyridin-2-yl)-N-(1-methylpiperidin-3-yl)benzamide] | only small necrotic lesions | 5.28±0.53 | 61.26 |
| CCN1CCC[C@@H](N(C(=O)c2ccc(-n3nnc4cccnc43)cc2)c2ncccc2Cl)C1 [CLY-2, (R)-4-(3H-[1,2,3]triazolo[4,5-b]pyridin-3-yl)-N-(3-chloropyridin-2-yl)-N-(1-ethylpiperidin-3-yl)benzamide] | only small necrotic lesions | 4.68±0.42 | 58.79 |
| O=C(c1ccc(-n2nnc3cccnc32)cc1)N(c1ncccc1Cl)[C@@H]1CCNC1 [CLY-8, (R)-4-(3H-[1,2,3]triazolo[4,5-b]pyridin-3-yl)-N-(3-chloropyridin-2-yl)-N-(pyrrolidin-3-yl)benzamide] | only small necrotic lesions | 4.56±0.39 | 63.48 |
